From PubChem BioAssay (NCI) come the findings set out here.

Test in all cases: growth of human tumour cells (NCI), 48 h
The test system of assay [1] is SW-620 colon.
For assay [2], the system named is MDA-MB-435.
Assay [3] concerns RPMI-8226 leukemia.
Assay [4] deals with OVCAR-5 ovarian.
For assay [5], the system named is SR leukemia.
Assay [6] has as its system CAKI-1 renal.
The test system of assay [7] is MCF7 breast.
The test system of assay [8] is T-47D breast.
Assay [9] concerns NCI-H226 lung.
Assay [10] deals with EKVX NSCLC.

Molecules are shown by their SMILES. “And” between values parts separate entries of the source, which are not always exact repeats. Identical values can stand only once.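 96-well plates; 48 h exposure; 5 concentrations. Endpoints by linear interpolation between flanking doses. Not reached: highest tested concentration assigned. GI50 is the concentration that inhibits growth by half. TGI is the concentration that stops growth completely.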

Take `O=C(/C=C/c1ccc(O)c(O)c1)N1CCN(c2ccc(Cl)cc2)CC1`: the GI50 was 7.28 µM in [1]; 5.93 µM in assay [2]; 2.87 µM in assay [3]; 13.3 µM in [4]; 3.94 µM in [5]; 4.71 µM in [6]. Moreover, the GI50 in assay [7] was 6.08 µM; in assay [8], 5.57 µM; in [9] it was 4.63 µM. For the same compound, the TGI in [1] came to 81.4 µM; in [2], 62.2 µM; in [3], 29.7 µM; in assay [4], 85.7 µM; in assay [5], 34 µM; in assay [6], 48 µM. Moreover, the results for the TGI in assay [7], in assay [8] and in assay [9] were 25 µM, 77 µM and 26.4 µM, respectively.
Turning to `CCn1c(-c2nonc2N)nc2ccccc21`, the GI50 in assay [1] is above 25 µM; in [2], above 25 µM; in [3] it was above 25 µM; in assay [4] it was above 25 µM; in assay [10] it was 20.9 µM; in assay [5], above 25 µM. Besides, the GI50 was above 25 µM in [6], above 25 µM in assay [7], above 25 µM in assay [8] and above 14.9 µM in [9]. The TGI in [1], in assay [2], in assay [3], in assay [4], in [10] and in assay [5] was above 25 µM each time. Moreover, the TGI in assay [6], in [7], in [8] and in assay [9] was above 25 µM in each case.
Take `O=C1CCC(c2ccccc2)=NN1c1nc2ccccc2s1`: the TGI in assay [1] is above 100 µM; in assay [2], 69.7 µM; in [3], above 87.9 µM; in assay [4], above 100 µM; in assay [10] it was above 100 µM; in [5], above 84.6 µM. Besides, the TGI was above 100 µM in [6], above 100 µM in assay [7], 32.7 µM in assay [8] and above 100 µM in assay [9].
As to `CN(C)CCCN1c2ccccc2Sc2ccc(C(F)(F)F)cc21`, the GI50 was 1.58 µM in assay [1]; 1.6 µM in assay [2]; 2.03 µM in assay [3]; 1.63 µM in assay [4]; 1.84 µM in assay [10]; 2.14 µM in assay [5]. Further, the GI50 in [6] was 1.54 µM; in assay [7], 1.6 µM; in assay [8], 1.4 µM; in assay [9], 1.56 µM. Besides, the TGI in [3] is 6.06 µM and 35.7 µM and 45.4 µM; in [4] it was 3.25 µM and 31.6 µM; in assay [10] it was 4.75 µM and 35.7 µM and 29.3 µM; in assay [6] it was 3.15 µM and 24 µM; in assay [8], 3.18 µM and 29.1 µM; in [9], 3.17 µM.
As to `CCCCNc1ncnc2c1cnn2-c1ccccc1`, the GI50 in assay [1] is 0.709 µM; in [2], 0.237 µM; in assay [3] it was 3.76 µM; in [4], 12.9 µM; in [10] it was 7.72 µM; in [5], 0.444 µM. Also, the GI50 is 2.09 µM in [6], 2.11 µM in assay [7], 3.71 µM in assay [8] and 13.7 µM in assay [9]. For the same compound, the TGI was above 100 µM in assay [1]; 0.7 µM in [2]; above 28.3 µM in [3]; above 100 µM in [4]; above 86.6 µM in [10]; above 100 µM in assay [5]. Besides, the TGI in assay [6] is above 40.8 µM; in [7], above 100 µM; in [8], 52.8 µM; in assay [9], 86.1 µM.
`Cc1cc(NC(=O)NCc2ccc(N3C(N)=NC(N)=NC3(C)C)cc2)ccc1S(=O)(=O)F`: the GI50 in assay [1] was 0.491 µM; in assay [2], 0.456 µM; in assay [3], 4.55 µM; in assay [4], above 25.4 µM; in assay [10], 13.8 µM; in assay [5] it was 0.502 µM. The GI50 in [6] was above 49.3 µM; in assay [7], 1.93 µM; in [8], 15.7 µM; in [9], above 61.2 µM. Besides, the TGI was above 100 µM in [1]; above 100 µM in assay [2]; above 100 µM in assay [3]; above 100 µM in [4]; above 100 µM in assay [10]; above 43.5 µM in [5]. In addition, the TGI in assay [6], in assay [7], in assay [8] and in assay [9] was above 100 µM throughout.
Regarding `O=c1c(I)c[nH]cc1I`, the GI50 in assay [1], in [2], in [3], in assay [4], in assay [10] and in [5] was above 100 µM throughout. The GI50 in [6], in assay [7], in [8] and in assay [9] was above 100 µM in each case. Also, the TGI in assay [1], in [2], in [3], in assay [4], in assay [10] and in assay [5] was above 100 µM each time. For the same compound, the TGI in [6], in assay [7], in assay [8] and in assay [9] was above 100 µM each time.
As for `Cc1cc(N2CCC(N3CCCC3)CC2)nc(/N=C(\N)Nc2ccc(Cl)c(Cl)c2)n1`, the GI50 in assay [1] was 1.57 µM; in [2], 1.74 µM; in assay [3], 0.264 µM; in [4] it was 1.77 µM; in assay [10] it was 1.71 µM; in assay [5], 0.255 µM. Besides, the GI50 is 1.29 µM in [6], 1.29 µM in [7], 1.92 µM in [8] and 1.79 µM in assay [9]. Moreover, the TGI in [1] is 3.24 µM; in [2], 3.3 µM; in assay [3], 0.926 µM; in assay [4], 3.79 µM; in [10], 4.4 µM; in [5] it was above 100 µM. Also, the TGI in assay [6] was 2.68 µM; in [7], 2.69 µM; in assay [8] it was 3.59 µM; in assay [9] it was 3.69 µM.
